Data published in PubChem BioAssay AID248 (DTP/NCI, 2004).
Several values for one entry are separate records, joined by “and”; a condition that tells them apart may be missing. Identical values can stand only once. Toxic doses and inconclusive results are not listed.

System: L1210 leukemia ip in BDF1 mice, survival T/C
Assay: NCI In Vivo Anticancer Drug Screen. Data for tumor model L1210 Leukemia (intraperitoneal) in B6D2F1 (BDF1) mice
Details: higher = longer survival
Summary of the method: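 In this screen, tumor-bearing mice given compound are compared to those given vehicle, and their survival values are reported as a treated-to-control quotient.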

[1] = endpoint: mean survival time, dose: 25.0 mg/kg/injection, schedule: Q01DX009 (ip), vehicle: saline
[2] = endpoint: mean survival time, dose: 400.0 mg/kg/injection, schedule: Q01DX001 (ip), vehicle: saline
[3] = endpoint: mean survival time, dose: 100.0 mg/kg/injection, schedule: Q01DX009 (ip), vehicle: saline with Tween-80
[4] = endpoint: mean survival time, dose: 100.0 mg/kg/injection, schedule: Q01DX001 (ip), vehicle: saline
[5] = endpoint: mean survival time, dose: 50.0 mg/kg/injection, schedule: Q01DX001 (ip), vehicle: saline
[6] = endpoint: mean survival time, dose: 200.0 mg/kg/injection, schedule: Q01DX001 (ip), vehicle: saline
[7] = endpoint: mean survival time, dose: 100.0 mg/kg/injection, schedule: Q04DX003 (ip), vehicle: Klucel (hydroxypropylcellulose) (HPC)
[8] = endpoint: mean survival time, dose: 200.0 mg/kg/injection, schedule: Q04DX003 (ip), vehicle: Klucel (hydroxypropylcellulose) (HPC)
[9] = endpoint: mean survival time, dose: 400.0 mg/kg/injection, schedule: Q04DX003 (ip), vehicle: Klucel (hydroxypropylcellulose) (HPC)
[10] = endpoint: mean survival time, dose: 100.0 mg/kg/injection, schedule: Q04DX003 (ip), vehicle: saline with Tween-80
[11] = endpoint: mean survival time, dose: 200.0 mg/kg/injection, schedule: Q04DX003 (ip), vehicle: saline with Tween-80
[12] = endpoint: mean survival time, dose: 100.0 mg/kg/injection, schedule: Q04DX003 (ip), vehicle: saline
[13] = endpoint: mean survival time, dose: 200.0 mg/kg/injection, schedule: Q01DX009 (ip), vehicle: saline with Tween-80
[14] = endpoint: mean survival time, dose: 400.0 mg/kg/injection, schedule: Q01DX009 (ip), vehicle: saline with Tween-80
[15] = endpoint: mean survival time, dose: 25.0 mg/kg/injection, schedule: Q01DX009 (ip), vehicle: Klucel (hydroxypropylcellulose) (HPC)
[16] = endpoint: mean survival time, dose: 50.0 mg/kg/injection, schedule: Q01DX009 (ip), vehicle: Klucel (hydroxypropylcellulose) (HPC)
[17] = endpoint: mean survival time, dose: 100.0 mg/kg/injection, schedule: Q01DX009 (ip), vehicle: Klucel (hydroxypropylcellulose) (HPC)
[18] = endpoint: mean survival time, dose: 100.0 mg/kg/injection, schedule: Q01DX009 (ip), vehicle: saline
[19] = endpoint: mean survival time, dose: 200.0 mg/kg/injection, schedule: Q01DX009 (ip), vehicle: saline

SMILES: Nc1ncnc2[nH]ncc12
- T/C (endpoint: mean survival time, dose: 0.94 mg/kg/injection, schedule: Q01DX Z (ip), vehicle: carboxymethylcellulose (CMC)): 92 % of control
- T/C (endpoint: mean survival time, dose: 1.7 mg/kg/injection, schedule: Q01DX015 (ip), vehicle: carboxymethylcellulose (CMC)): 98 % of control
- T/C (endpoint: mean survival time, dose: 1.88 mg/kg/injection, schedule: Q01DX Z (ip), vehicle: carboxymethylcellulose (CMC)): 97 % of control
- T/C (endpoint: mean survival time, dose: 2.6 mg/kg/injection, schedule: Q01DX015 (ip), vehicle: carboxymethylcellulose (CMC)): 96 % of control and 99 % of control
- T/C (endpoint: mean survival time, dose: 3.75 mg/kg/injection, schedule: Q01DX Z (ip), vehicle: carboxymethylcellulose (CMC)): 114 % of control
- T/C (endpoint: mean survival time, dose: 4.0 mg/kg/injection, schedule: Q01DX015 (ip), vehicle: carboxymethylcellulose (CMC)): 107 % of control and 108 % of control
- T/C (endpoint: mean survival time, dose: 6.0 mg/kg/injection, schedule: Q01DX015 (ip), vehicle: carboxymethylcellulose (CMC)): 111 % of control and 114 % of control
- T/C (endpoint: mean survival time, dose: 7.5 mg/kg/injection, schedule: Q01DX Z (ip), vehicle: carboxymethylcellulose (CMC)): 114 % of control
- T/C (endpoint: mean survival time, dose: 8.0 mg/kg/injection, schedule: Q02DX010 (ip), vehicle: carboxymethylcellulose (CMC)): 109 % of control
- T/C (endpoint: mean survival time, dose: 9.0 mg/kg/injection, schedule: Q01DX015 (ip), vehicle: carboxymethylcellulose (CMC)): 109 % of control and 120 % of control
- T/C (endpoint: mean survival time, dose: 13.0 mg/kg/injection, schedule: Q02DX010 (ip), vehicle: other): 115 % of control
- T/C (endpoint: mean survival time, dose: 13.5 mg/kg/injection, schedule: Q01DX015 (ip), vehicle: carboxymethylcellulose (CMC)): 106 % of control
- T/C (endpoint: mean survival time, dose: 20.0 mg/kg/injection, schedule: Q02DX010 (ip), vehicle: other): 120 % of control
- T/C [1]: 106 % of control
- T/C (endpoint: mean survival time, dose: 30.0 mg/kg/injection, schedule: Q02DX010 (ip), vehicle: other): 115 % of control
- T/C (endpoint: mean survival time, dose: 45.0 mg/kg/injection, schedule: Q02DX010 (ip), vehicle: other): 121 % of control
- T/C (endpoint: mean survival time, dose: 67.0 mg/kg/injection, schedule: Q02DX010 (ip), vehicle: other): 91 % of control
- T/C (endpoint: mean survival time, dose: 80.0 mg/kg/injection, schedule: Q01DX001 (ip), vehicle: carboxymethylcellulose (CMC)): 111 % of control
- T/C (endpoint: mean survival time, dose: 120.0 mg/kg/injection, schedule: Q01DX001 (ip), vehicle: carboxymethylcellulose (CMC)): 103 % of control
- T/C (endpoint: mean survival time, dose: 182.0 mg/kg/injection, schedule: Q01DX001 (ip), vehicle: carboxymethylcellulose (CMC)): 117 % of control
- T/C (endpoint: median survival time, dose: 3.0 mg/kg/injection, schedule: Q01DX009 (ip), vehicle: saline): 100 % of control and 105 % of control
- T/C (endpoint: median survival time, dose: 6.0 mg/kg/injection, schedule: Q01DX009 (ip), vehicle: saline): 100 % of control and 111 % of control
- T/C (endpoint: median survival time, dose: 12.0 mg/kg/injection, schedule: Q01DX009 (ip), vehicle: saline): 112 % of control
- T/C (endpoint: median survival time, dose: 24.0 mg/kg/injection, schedule: Q01DX009 (ip), vehicle: saline): 100 % of control and 112 % of control

SMILES: Fc1ccccc1CSc1ncnc2nc[nH]c12
- T/C (endpoint: mean survival time, dose: 40.0 mg/kg/injection, schedule: Q01DX009 (ip), vehicle: saline): 115 % of control
- T/C (endpoint: mean survival time, dose: 150.0 mg/kg/injection, schedule: Q01DX009 (ip), vehicle: saline): 157 % of control
- T/C (endpoint: mean survival time, dose: 175.0 mg/kg/injection, schedule: Q01DX001 (ip), vehicle: saline): 117 % of control and 118 % of control
- T/C (endpoint: mean survival time, dose: 265.0 mg/kg/injection, schedule: Q01DX001 (ip), vehicle: saline): 112 % of control and 120 % of control
- T/C [2]: 122 % of control
- T/C (endpoint: mean survival time, dose: 600.0 mg/kg/injection, schedule: Q01DX001 (ip), vehicle: saline): 100 % of control

SMILES: O=C(O)C1Cc2nc[nH]c2CN1CO (configuration not stated)
- T/C (endpoint: mean survival time, dose: 12.5 mg/kg/injection, schedule: Q01DX009 (ip), vehicle: saline with Tween-80): 122 % of control
- T/C (endpoint: mean survival time, dose: 25.0 mg/kg/injection, schedule: Q01DX009 (ip), vehicle: saline with Tween-80): 113 % of control
- T/C [3]: 263 % of control

SMILES: C[CH2][Hg][Cl]
- T/C (endpoint: mean survival time, dose: 12.5 mg/kg/injection, schedule: Q04DX002 (ip), vehicle: Klucel (hydroxypropylcellulose) (HPC)): 97 % of control
- T/C (endpoint: mean survival time, dose: 25.0 mg/kg/injection, schedule: Q04DX002 (ip), vehicle: Klucel (hydroxypropylcellulose) (HPC)): 94 % of control
- T/C [4]: 97 % of control

SMILES: CCOC(=O)C(C(C)=O)C(C)=O
- T/C [5]: 101 % of control
- T/C [4]: 107 % of control
- T/C [6]: 97 % of control
- T/C [2]: 97 % of control

SMILES: COC(=O)C(CSc1ccccc1)NC(=O)c1ccccc1 (configuration not stated)
- T/C [7]: 101 % of control
- T/C [8]: 114 % of control
- T/C [9]: 96 % of control

SMILES: CCCCOC(=O)c1ccccn1
- T/C [10]: 99 % of control
- T/C [11]: 94 % of control

SMILES: CCCCCCCCN1CCCNCC1
- T/C (endpoint: mean survival time, dose: 6.25 mg/kg/injection, schedule: Q01DX009 (ip), vehicle: saline): 96 % of control
- T/C (endpoint: mean survival time, dose: 12.5 mg/kg/injection, schedule: Q01DX009 (ip), vehicle: saline): 102 % of control
- T/C [1]: 96 % of control
- T/C (endpoint: mean survival time, dose: 25.0 mg/kg/injection, schedule: Q04DX003 (ip), vehicle: saline): 121 % of control
- T/C (endpoint: mean survival time, dose: 50.0 mg/kg/injection, schedule: Q04DX003 (ip), vehicle: saline): 109 % of control
- T/C [12]: 87 % of control

SMILES: Cc1ccc(N2C(=O)CSC2=S)cc1F
- T/C (endpoint: mean survival time, dose: 100.0 mg/kg/injection, schedule: Q04DX002 (ip), vehicle: Klucel (hydroxypropylcellulose) (HPC)): 96 % of control
- T/C (endpoint: mean survival time, dose: 200.0 mg/kg/injection, schedule: Q04DX002 (ip), vehicle: Klucel (hydroxypropylcellulose) (HPC)): 104 % of control
- T/C (endpoint: mean survival time, dose: 400.0 mg/kg/injection, schedule: Q04DX002 (ip), vehicle: Klucel (hydroxypropylcellulose) (HPC)): 101 % of control

SMILES: O=C1Nc2ccccc2/C1=N/N=C/c1cc(Cl)cc(Cl)c1O
- T/C [3]: 90 % of control
- T/C [10]: 90 % of control
- T/C [13]: 92 % of control
- T/C [11]: 90 % of control
- T/C [14]: 91 % of control
- T/C (endpoint: mean survival time, dose: 400.0 mg/kg/injection, schedule: Q04DX003 (ip), vehicle: saline with Tween-80): 91 % of control

SMILES: O=C(O)CNC(=O)c1ccc(NC(=S)Nc2ccccc2)cc1
- T/C [15]: 90 % of control
- T/C [16]: 88 % of control
- T/C [17]: 108 % of control and 91 % of control

SMILES: CC(=O)Nc1ccc(C(=O)O)c(OC(C)=O)c1
- T/C (endpoint: mean survival time, dose: 100.0 mg/kg/injection, schedule: Q01DX001 (ip), vehicle: saline with Tween-80): 92 % of control
- T/C (endpoint: mean survival time, dose: 200.0 mg/kg/injection, schedule: Q01DX001 (ip), vehicle: saline with Tween-80): 96 % of control
- T/C (endpoint: mean survival time, dose: 400.0 mg/kg/injection, schedule: Q01DX001 (ip), vehicle: saline with Tween-80): 97 % of control

SMILES: CCN(CC)CC(=O)NCC(CC)(CCN(C)C)c1cccc2ccccc12 (configuration not stated)
- T/C [18]: 105 % of control
- T/C [12]: 102 % of control
- T/C [19]: 97 % of control
- T/C (endpoint: mean survival time, dose: 200.0 mg/kg/injection, schedule: Q04DX003 (ip), vehicle: saline): 100 % of control

SMILES: Cc1cccc(C2=CCCCC2)c1
- T/C (endpoint: mean survival time, dose: 50.0 mg/kg/injection, schedule: Q01DX001 (ip), vehicle: carboxymethylcellulose (CMC)): 96 % of control
- T/C (endpoint: mean survival time, dose: 100.0 mg/kg/injection, schedule: Q01DX001 (ip), vehicle: carboxymethylcellulose (CMC)): 102 % of control
- T/C (endpoint: mean survival time, dose: 200.0 mg/kg/injection, schedule: Q01DX001 (ip), vehicle: carboxymethylcellulose (CMC)): 96 % of control

SMILES: CC(=O)ONCCc1ccc(S(=O)(=O)F)cc1
- T/C [7]: 105 % of control
- T/C [8]: 96 % of control
- T/C [9]: 98 % of control

SMILES: C=C1C(=O)OC2CC/C=C\CCC12 (configuration not stated)
- T/C (endpoint: mean survival time, dose: 50.0 mg/kg/injection, schedule: Q01DX009 (ip), vehicle: saline): 95 % of control
- T/C [18]: 103 % of control
- T/C [19]: 95 % of control

SMILES: C=CCc1cccc(C2N(Cc3ccccc3OC)CCCN2Cc2ccccc2OC)c1O
- T/C [5]: 103 % of control
- T/C [4]: 100 % of control
- T/C [6]: 97 % of control
- T/C [2]: 97 % of control

SMILES: CC1=CCC(=O)C2(C)CC(O)C(C(C)C(=O)O)C=C12 (configuration not stated)
- T/C (endpoint: mean survival time, dose: 100.0 mg/kg/injection, schedule: Q04DX003 (ip), vehicle: acetone): 97 % of control
- T/C (endpoint: mean survival time, dose: 200.0 mg/kg/injection, schedule: Q04DX003 (ip), vehicle: acetone): 95 % of control
- T/C (endpoint: mean survival time, dose: 400.0 mg/kg/injection, schedule: Q04DX003 (ip), vehicle: acetone): 105 % of control

SMILES: COc1cc2c(cc1OC)C1CC(=O)C(CC(C)C)CN1CC2 (configuration not stated)
- T/C [15]: 105 % of control
- T/C [16]: 103 % of control
- T/C [17]: 117 % of control
- T/C [3]: 102 % of control
- T/C [13]: 90 % of control
- T/C [14]: 89 % of control
